Laboratory results: article PMC4871539 (PLoS ONE, 2016)

How the values were obtained:
[1] = mouse, in vivo; cited from earlier work
E. coli 35218R [2] = assay: microbe, parasite or virus in culture; settings: Escherichia coli
[3] = mouse, in vivo
E. coli ATCC 35218 = assay type: cell-based, Escherichia coli; settings: 30-μg cefoxitin disc
E. coli 35218R [4] = assay type: cell-based, Escherichia coli; settings: 30-μg cefoxitin disc

| Compound | MIC (E. coli 35218R [2]) | further results |
| --- | --- | --- |
| CN[C@H](CC(C)C)C(=O)N[C@H]1C(=O)N[C@@H](CC(N)=O)C(=O)N[C@H]2C(=O)N[C@H]3C(=O)N[C@H](C(=O)N[C@H](C(=O)O)c4cc(O)cc(O)c4-c4cc3ccc4O)[C@H](O)c3ccc(c(Cl)c3)Oc3cc2cc(c3O[C@@H]2O[C@H](CO)[C@@H](O)[C@H](O)[C@H]2O[C@H]2C[C@](C)(N)[C@H](O)[C@H](C)O2)Oc2ccc(cc2Cl)[C@H]1O [vancomycin] | – | elimination half-life [1]: ~30 min |
| CO/N=C(\C(=O)N[C@@H]1C(=O)N2C(C(=O)[O-])=C(C[N+]3(C)CCCC3)CS[C@H]12)c1csc(N)n1 [Cefepime] | ≤ 1 µg/mL | – |
| piperacillin-tazobactam [Procaps] | – | bioequivalence test versus innovator [3]: passed |
| CC(C)(O/N=C(\C(=O)N[C@@H]1C(=O)N2C(C(=O)[O-])=C(C[n+]3ccccc3)CS[C@H]12)c1csc(N)n1)C(=O)O [Ceftazidime] | ≤ 1 µg/mL | – |
| piperacillin-tazobactam [Farmalogica] | – | bioequivalence test versus innovator [3]: passed |
| C[C@@H](O)[C@H]1C(=O)N2C(C(=O)O)=C(SCCN=CN)C[C@H]12 [Imipenem] | ≤ 1 µg/mL | – |
| C[C@@H](O)[C@H]1C(=O)N2C(C(=O)O)=C(S[C@@H]3CN[C@H](C(=O)Nc4cccc(C(=O)O)c4)C3)[C@H](C)[C@H]12 [Ertapenem] | ≤ 0.5 µg/mL | – |
| C[C@@H](O)[C@H]1C(=O)N2C(C(=O)O)=C(S[C@@H]3CN[C@H](C(=O)N(C)C)C3)[C@H](C)[C@H]12 [Meropenem] | ≤ 0.25 µg/mL | – |
| C[C@H]1[C@H](NC(=O)/C(=N\OC(C)(C)C(=O)O)c2csc(N)n2)C(=O)N1S(=O)(=O)O [Aztreonam] | ≤ 1 µg/mL | – |
| CO[C@@]1(NC(=O)Cc2cccs2)C(=O)N2C(C(=O)O)=C(COC(N)=O)CS[C@@H]21 [Cefoxitin] | ≤ 4 µg/mL | inhibition zone (mean ± SD) (E. coli ATCC 35218): 27.2 ± 0.1 mm; inhibition zone (mean ± SD) (E. coli 35218R [4]): 27.9 ± 0.1 mm |
| CO/N=C(\C(=O)N[C@@H]1C(=O)N2C(C(=O)O)=C(CSc3nc(=O)c(=O)[nH]n3C)CS[C@H]12)c1csc(N)n1 [Ceftriaxone] | ≤ 1 µg/mL | – |
